{"source": "paper PMC12018048", "about": "“Intranasal kisspeptin administration rapidly stimulates gonadotropin release in humans” (eBioMedicine, 2025)", "key": {"LH": {"system": "LH", "conditions": "mice, intraperitoneal route, 1 nM; cited from earlier work"}, "[1]": {"assay": "Kisspeptin-54 powder particle size and shape analysis (Morphologi 4)", "assay_type": "physicochemical", "experimental": "Particle size and shape analysis of the kisspeptin-54 powder was performed using a Morphologi 4 (Malvern Instruments, Worcestershire, UK). Particles were readily dispersed using the dispersion unit at low energy level. Bright field illumination was used for microscopic visualisation of the particles with the light intensity calibrated to 70%. The samples were scanned using the 20× objective lens over a scan area of 4.5 mm by 4.5 mm with a trash size of 10 pixels."}, "[2]": {"system": "serum LH, FSH, oestradiol and progesterone", "assay": "Intranasal kisspeptin-54, reproductive hormone profiles in patients with hypothalamic amenorrhoea", "assay_type": "in vivo, human", "experimental": "This was a randomised, double-blinded, crossover, placebo-controlled clinical study (Fig. 1, Fig. 2, Fig. 3a). Participants were admitted to the Clinical Research Unit (Imperial College Healthcare NHS Trust) and completed five (in healthy men) or two (in healthy women and patients with HA) study visits. […] Study visits in healthy women were conducted in the follicular phase of the menstrual cycle (i.e., days 2–10 inclusive) to control for changes in reproductive hormones over the course of the cycle and were conducted across two different menstrual cycles to allow washout.\n(§1) All studies commenced at 08:00 to control for circadian hormonal changes. Participants were instructed to abstain from alcohol, caffeine, and sexual activities from 22:00 preceding each study visit. On arrival, an intravenous cannula was inserted into one antecubital fossa, and blood was sampled at timepoints −30, −15, and 0 min, before intranasal administration of kisspeptin-54 or 0.9% saline (placebo). Following participant education (described below), healthy men self-administered the following 5 interventions under supervision in random order via the intranasal route: 3.2, 6.4, 12.8, and 25.6 nmol/kg of kisspeptin-54, or placebo. Healthy women and patients with HA attended for the same protocol comparing 12.8 nmol/kg of kisspeptin-54 and placebo in random order. After administration of kisspeptin-54 or placebo at timepoint 0 min, serum levels of LH, FSH, and testosterone (in men), or oestradiol and progesterone (in women) were measured every 15 min for 4 h. Heart rate, blood pressure, and the presence of adverse symptoms were recorded every 15 min.\nKisspeptin-54 or placebo was self-administered using nasal spray devices that delivered a single volume of 100 μL per actuation (SP270+ pump, 3959 actuator, 5 mL SGD U-Save glass bottles provided by Nemera, La Verpillière, France). The kisspeptin-54 nasal spray solution formulations were prepared by reconstituting kisspeptin-54 powder stored in sterile vials on the morning of each study visit to produce a solution containing the target dose according to body weight in 400 μL.\nParticipants were familiarised with the procedure of intranasal application and were provided with written administration instructions ahead of each study visit, as described in.[38] In addition, participants received a 5-min training session using a dummy nasal spray device before starting the study to ensure good technique, which all participants easily understood. Under instruction and supervision from the clinical team, participants primed the nasal sprays then self-administered a total of four sprays of kisspeptin-54 or placebo per visit (i.e., 4 × 100 μL), alternating between nostrils and leaving 60 s between sprays, to allow satisfactory dissipation and avoid solution running out of the nostrils. Nasal sprays containing kisspeptin or placebo were identical in appearance, volume, and administration technique.\nBlood samples were collected to measure serum reproductive hormone levels at the timepoints depicted in Fig. 1, Fig. 2, Fig. 3a. Serum samples were stored at −20 °C until analysis. Serum LH, FSH, testosterone (in men), and oestradiol and progesterone (in women) were measured using automated chemiluminescent immunoassays (Abbott Diagnostics, Maidenhead, UK: LH catalogue # 2P40-25, FSH catalogue # 7K75-25, testosterone catalogue # 07K7320, oestradiol catalogue # 7K72-25, progesterone catalogue # 7K77-25). Reference ranges: LH in international units per litre (IU/L), 2–12 (men), 2–10 (follicular), 20–60 (mid-cycle), 4–14 (luteal); FSH in IU/L, 1.7–8 (men), 1.5–8.0 (follicular and luteal), 10–50 (mid-cycle); in men: testosterone in nanomoles per litre (nmol/L), 10–30; and in women: oestradiol in picomoles per litre (pmol/L), <300 (early follicular), 400–1500 (mid-cycle), 200–1000 (luteal) and progesterone in nmol/L, <5.0 (follicular), 3.5–67 (luteal). […]"}, "[3]": {"assay": "Safety assessments in healthy participants and patients (adverse events, blood pressure, heart rate)", "assay_type": "in vivo, human", "conditions": "intranasal; for Side effects or adverse events (of any severity): all participants in all study groups (healthy men, healthy women, patients with HA)", "experimental": "as §1\nThe primary outcome measure was change in serum LH following intranasal administration of kisspeptin compared to placebo. The secondary outcome measures were changes in serum FSH, as well as testosterone [in men], and oestradiol and progesterone [in women] following intranasal administration of kisspeptin compared to placebo. In addition, safety assessments were performed that included adverse event recording, blood pressure, and heart rate measurements."}, "[4]": {"conditions": "intranasal 12.8 nmol/kg, N = 10 (HA) and N = 12 (healthy women)"}, "[5]": {"conditions": "intranasal 12.8 nmol/kg, unpaired t-test, N = 10 (HA) and N = 12 (healthy women)"}, "[6]": {"conditions": "patients with HA, intranasal 12.8 nmol/kg vs placebo, paired t-test, N = 10"}, "[7]": {"conditions": "patients with HA, intranasal 12.8 nmol/kg, two-way ANOVA, 4 h time profile, N = 10"}, "[8]": {"conditions": "patients with hypothalamic amenorrhoea, intranasal 12.8 nmol/kg, 4 h sampling, mean ± SEM, N = 10"}, "[9]": {"conditions": "patients with hypothalamic amenorrhoea, intranasal 12.8 nmol/kg, mean ± SEM, N = 10"}}}
{"substance": "Kisspeptin-54", "values": [{"measurement": "Effect on LH", "setting": "LH", "result": "robustly increases LH"}, {"measurement": "Particle shape", "setting": "[1]; Morphologi 4", "result": "irregular-shaped particles"}, {"measurement": "Proportion of particles in the 20–50 μm range", "setting": "[1]; Morphologi 4", "result": "over 40%"}, {"measurement": "Circular equivalent diameter range of powder particles", "setting": "[1]; Morphologi 4, N = 55,421 particles", "result": "0.5–113 μm"}, {"measurement": "Powder particle size range (particles largely within)", "setting": "[1]; Morphologi 4 static automated imaging", "result": "10–110 μm"}, {"measurement": "Maximal FSH increase, patients with HA relative to healthy women", "setting": "[2]; [4]", "result": "over 10 fold"}, {"measurement": "Maximal LH increase, patients with HA relative to healthy women", "setting": "[2]; [4]", "result": "over 3 fold"}, {"measurement": "Maximal FSH increase, mean difference patients with HA vs healthy women", "setting": "[2]; [5]", "result": 2.77, "unit": "IU/L"}, {"measurement": "Maximal LH increase, mean difference patients with HA vs healthy women", "setting": "[2]; [5]", "result": 2.95, "unit": "IU/L"}, {"measurement": "FSH AUC, mean difference vs placebo", "setting": "[2]; [6]", "result": 580.0, "unit": "h·IU/L"}, {"measurement": "FSH maximum increase, mean difference vs placebo", "setting": "[2]; [6]", "result": 3.1, "unit": "IU/L"}, {"measurement": "LH AUC, mean difference vs placebo", "setting": "[2]; [6]", "result": 756.9, "unit": "h·IU/L"}, {"measurement": "LH maximum increase, mean difference vs placebo", "setting": "[2]; [6]", "result": 4.3, "unit": "IU/L"}, {"measurement": "Time of maximal stimulation of serum LH post-administration", "setting": "[2]; patients with HA, intranasal 12.8 nmol/kg, N = 10", "result": "30 to 45", "unit": "min"}, {"measurement": "Effect on circulating oestradiol and progesterone levels", "setting": "[2]; patients with HA, intranasal 12.8 nmol/kg, acute 4-h time-course, N = 10", "result": "no significant effects"}, {"measurement": "Serum FSH over time, mean difference vs placebo", "setting": "[2]; [7]", "result": 2.35, "unit": "IU/L"}, {"measurement": "Serum LH over time, mean difference vs placebo", "setting": "[2]; [7]", "result": 3.0, "unit": "IU/L"}, {"measurement": "AUC of the change in serum FSH", "setting": "[2]; [8]", "result": "474.9 ± 237.3", "unit": "h·IU/L"}, {"measurement": "AUC of the change in serum LH", "setting": "[2]; [8]", "result": "600.6 ± 146.7", "unit": "h·IU/L"}, {"measurement": "Maximum increase from baseline in serum FSH", "setting": "[2]; [9]", "result": "3.1 ± 0.3", "unit": "IU/L"}, {"measurement": "Maximum increase from baseline in serum LH", "setting": "[2]; [9]", "result": "4.4 ± 0.2", "unit": "IU/L"}, {"measurement": "Side effects or adverse events (of any severity)", "setting": "[3]", "result": "without any side effects or adverse events"}, {"measurement": "Side effects or adverse events (of any severity)", "setting": "[3]; listed as kisspeptin", "result": "no side effects or adverse events"}, {"measurement": "Effect on blood pressure or heart rate measurements", "setting": "[3]; any of the doses administered, recorded every 15 min", "result": "no effect"}]}
